Assays:
Assay type in all cases: in vivo
[1] = system: barnyardgrass (Echinochloa crus-galli (L.) Beauv.) (BG); assay: Postemergence herbicide test, foliar spray, barnyardgrass; settings: 3000 ppm foliar spray to drip point, treated six days after emergence, two weeks after treatment
Experimental: (§1) To illustrate the effectiveness of the previously described substituted oxadiazines of this invention as preemergence herbicides, 300 mg of the chemical was dissolved in a composition comprising 10 mL acetone to which 30 mg of tile emulsifying agent, ethoxylated sorbitan monolaurate, was added. The solution was diluted to 100 mL with distilled water. Ten milliliters of this 3000 ppm solution was diluted to 250 ppm with distilled water. The chemical was applied at the rate of 10 pounds/acre (11.2 kg/ha) by drenchings 46 mL of the 250 ppm solution on the surface of soil in 4½ inch (11.25 cm) plastic pots wherein seeds of the following weeds had been planted: barnyardgrass (Echinochloa crus-galli (L.) Beauv.) (BG), and To illustrate the effectiveness of the described substituted oxadiazines as postemergence herbicides, the 3000 ppm solution described under Example 5 was atomized with a conventional DeVilbiss™ sprayer, wetting the foliage to the drip point. The weeds, which were the same species as described in Example 5, were treated six days after emergence. The percent weed control was evaluated two weeks after treatment.

[2] = system: switchgrass (Panicum virgahim L.) (SG); assay: Preemergence herbicide test, soil drench, switchgrass; settings: Panicum, 336 h, 10 lbs/A (11.2 kg/ha) soil drench, two weeks after treatment, vs untreated checks, read-out: Percent Weed Control SG
Summary of the method: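 Preemergence soil drench at 10 pounds/acre (11.2 kg/ha), 46 mL of 250 ppm aqueous solution (acetone, ethoxylated sorbitan monolaurate) applied to pots sown with switchgrass seed. Percent weed control versus untreated checks scored two weeks after treatment.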

[3] = system: tall morningglory (Ipomoea purpurea (L.) Roth) (TM); assay: Postemergence herbicide test, foliar spray, tall morningglory; settings: 3000 ppm foliar spray to drip point, treated six days after emergence, two weeks after treatment
Experimental: as §1, with “tall morningglory (Ipomoea purpurea” for “barnyardgrass (Echinochloa crus-galli”, “Roth) (TM),” for “Beauv.) (BG), and”

[4] = system: prickly sida (Sida spinosa L.) (PS); assay: Preemergence herbicide test, soil drench, prickly sida; settings: Sida spinosa, 336 h, 10 lbs/A (11.2 kg/ha) soil drench, two weeks after treatment, vs untreated checks, read-out: Percent Weed Control PS
[5] = system: green foxtail (Setaria virdis (L.) Beauv.) (GF); assay: Preemergence herbicide test, soil drench, green foxtail; settings: Setaria, 336 h, 10 lbs/A (11.2 kg/ha) soil drench, two weeks after treatment, vs untreated checks, read-out: Percent Weed Control GF
Summary of the method: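 Compound in acetone/water with ethoxylated sorbitan monolaurate emulsifier, applied as 250 ppm soil drench at 10 lb/acre (11.2 kg/ha) to pots sown with green foxtail seed. Percent weed control versus untreated checks rated two weeks after treatment.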

[6] = system: velvetleaf (Abutilon theophrasti Medik.) (VL); assay: Preemergence herbicide test, soil drench, velvetleaf; settings: Abutilon theophrasti, 336 h, 10 lbs/A (11.2 kg/ha) soil drench, two weeks after treatment, vs untreated checks, read-out: Percent Weed Control VL
Summary of the method: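 Compound in acetone/ethoxylated sorbitan monolaurate, diluted to 250 ppm in water, was drenched onto the soil surface of pots sown with velvetleaf at 10 lb/acre (11.2 kg/ha). Percent control versus untreated checks was rated two weeks after treatment.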

SMILES	Percent Weed Control BG [1] [%]	pest or weed control at 11208.5 g/ha [2] [%]	Percent Weed Control TM [3] [%]	pest or weed control at 11208.5 g/ha [4] [%]	pest or weed control at 11208.5 g/ha [5] [%]	pest or weed control at 11208.5 g/ha [6] [%]
Fc1ccc(C2=NC(C(F)(F)F)(C(F)(F)F)N=C(C(F)(F)C(F)(F)F)O2)cc1Cl [Compound 20, 2-(3-chloro-4-fluorophenyl)-6-(pentafluoroethyl)-4,4-bis(trifluoromethyl)-4H-1,3,5-oxadiazine]	30	100	0	100	100	100
FC(F)(F)C(F)(F)C1=NC(C(F)(F)F)(C(F)(F)F)N=C(c2cccc(Cl)c2)O1 [Compound 13, 2-(3-chlorophenyl)-6-(pentafluoroethyl)-4,4-bis(trifluoromethyl)-4H-1,3,5-oxadiazine]	80	100	100	100	100	100
FC(F)(F)C(F)(F)C1=NC(C(F)(F)F)(C(F)(F)F)N=C(c2ccc(Br)cc2)O1 [Compound 25, 2-(4-bromophenyl)-6-(pentafluoroethyl)-4,4-bis(trifluoromethyl)-4H-1,3,5-oxadiazine]	50	100	20	100	100	100
FC(F)(F)C(F)(F)C1=NC(C(F)(F)F)(C(F)(F)F)N=C(c2ccc(Cl)cc2)O1 [Compound 24, 2-(4-chlorophenyl)-6-(pentafluoroethyl)-4,4-bis(trifluoromethyl)-4H-1,3,5-oxadiazine]	20	100	0	100	100	100
FC(F)(F)C1=NC(C(F)(F)F)(C(F)(F)F)N=C(c2cccc(Cl)c2)O1 [Compound 4, 2-(3-chlorophenyl)-4,4,6-tris(trifluoromethyl)-4H-1,3,5-oxadiazine]	100	100	100	100	100	100

— patent US6514911B1, “Substituted oxadiazines useful as pesticides” (Uniroyal Chemical Company, Inc., priority 2002, dated 2003)
